Reference: ChEMBL document CHEMBL1201862, “PubChem BioAssay data set” (2004)
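Compound exposure: 48 hours, 5 concentrations, 96-well plates. GI50 = concentration required for 50% inhibition of growth.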 Activity calls are given as the source filed them. No stated cut-off is given here; in the data, active = GI50 up to about 1.1 µM and inactive = higher.

Columns and labels:
Test in all cases: NCI tumour cell line growth inhibition, 48 h
SW-620 = tested on: SW-620
UO-31 = tested on: UO-31
ACHN = tested on: ACHN
A498 = tested on: A498
T47D = tested on: T47D
RPMI-8226 = tested on: RPMI-8226
RXF 393 = tested on: RXF 393
786-0 = tested on: 786-0
HOP-92 = tested on: HOP-92
TK-10 = tested on: TK-10
MDA-N = tested on: MDA-N
K562 = tested on: K562
SF-539 = tested on: SF-539
LOX IMVI = tested on: LOX IMVI
HCT-15 = tested on: HCT-15
SNB-75 = tested on: SNB-75
OVCAR-4 = tested on: OVCAR-4
SK-MEL-5 = tested on: SK-MEL-5
U-251 = tested on: U-251
SF-295 = tested on: SF-295
NCI-H226 = tested on: NCI-H226
A549 = tested on: A549
SK-MEL-2 = tested on: SK-MEL-2
BT-549 = tested on: BT-549
CCRF-CEM = tested on: CCRF-CEM
IGROV-1 = tested on: IGROV-1
UACC-257 = tested on: UACC-257
HCT-116 = tested on: HCT-116
HOP-62 = tested on: HOP-62
OVCAR-5 = tested on: OVCAR-5
HL-60 = tested on: HL-60
NCI/ADR-RES = tested on: NCI/ADR-RES
KM12 = tested on: KM12
NCI-H460 = tested on: NCI-H460
DU-145 = tested on: DU-145
Malme-3M = tested on: Malme-3M
MDA-MB-231 = tested on: MDA-MB-231
SF-268 = tested on: SF-268
Hs-578T = tested on: Hs-578T
CAKI-1 = tested on: CAKI-1
EKVX = tested on: EKVX
HCC 2998 = tested on: HCC 2998
NCI-H23 = tested on: NCI-H23
MOLT-4 = tested on: MOLT-4
SNB-19 = tested on: SNB-19
HT-29 = tested on: HT-29
OVCAR-3 = tested on: OVCAR-3
OVCAR-8 = tested on: OVCAR-8
SR = tested on: SR
SK-MEL-28 = tested on: SK-MEL-28
COLO 205 = tested on: COLO 205
MDA-MB-435 = tested on: MDA-MB-435
SK-OV-3 = tested on: SK-OV-3
UACC-62 = tested on: UACC-62
PC-3 = tested on: PC-3
MCF7 = tested on: MCF7
SN12C = tested on: SN12C
M14 = tested on: M14
NCI-H522 = tested on: NCI-H522

## CCCCCNC1=CC(=O)c2ccccc2C1=O
SW-620
  GI50: > 100 µM (inactive)
UO-31
  GI50: > 51.6 µM (inactive)
ACHN
  GI50: 58.9 µM (inactive)
A498
  GI50: 32.1 µM (inactive)
T47D
  GI50: 27.5 µM (inactive)
RPMI-8226
  GI50: > 91.8 µM (inactive)
RXF 393
  GI50: 21.7 µM (inactive)
786-0
  GI50: 18.4 µM (inactive)
HOP-92
  GI50: 17.4 µM (inactive)
TK-10
  GI50: 30.2 µM (inactive)
MDA-N
  GI50: > 100 µM (inactive)
K562
  GI50: > 100 µM (inactive)
SF-539
  GI50: 20.6 µM (inactive)
LOX IMVI
  GI50: 22.6 µM (inactive)
HCT-15
  GI50: 52.2 µM
SNB-75
  GI50: 22.2 µM (inactive)
OVCAR-4
  GI50: 59.7 µM (inactive)
SK-MEL-5
  GI50: 17.9 µM (inactive)
U-251
  GI50: 17.5 µM (inactive)
SF-295
  GI50: 26.3 µM (inactive)
NCI-H226
  GI50: 31.6 µM (inactive)
A549
  GI50: 42.8 µM (inactive)
SK-MEL-2
  GI50: 21.6 µM (inactive)
BT-549
  GI50: 19.5 µM (inactive)
CCRF-CEM
  GI50: > 100 µM (inactive)
IGROV-1
  GI50: 33.2 µM (inactive)
UACC-257
  GI50: > 60.5 µM (inactive)
HCT-116
  GI50: 22.9 µM (inactive)
HOP-62
  GI50: 23.9 µM (inactive)
OVCAR-5
  GI50: > 100 µM (inactive)
HL-60
  GI50: 18.5 µM (inactive)
NCI/ADR-RES
  GI50: 45.3 µM (inactive)
KM12
  GI50: > 100 µM (inactive)
NCI-H460
  GI50: 34.5 µM (inactive)
DU-145
  GI50: 53.3 µM (inactive)
Malme-3M
  GI50: 34.5 µM (inactive)
MDA-MB-231
  GI50: 19.4 µM (inactive)
SF-268
  GI50: 25.1 µM (inactive)
Hs-578T
  GI50: 27.8 µM (inactive)
CAKI-1
  GI50: 33.7 µM (inactive)
EKVX
  GI50: > 58.9 µM (inactive)
HCC 2998
  GI50: > 78.2 µM (inactive)
NCI-H23
  GI50: 24.3 µM (inactive)
MOLT-4
  GI50: > 100 µM (inactive)
SNB-19
  GI50: 24.3 µM (inactive)
HT-29
  GI50: 69.2 µM (inactive)
OVCAR-3
  GI50: 22.5 µM (inactive)
OVCAR-8
  GI50: 23 µM (inactive)
SR
  GI50: 46.6 µM (inactive)
SK-MEL-28
  GI50: > 100 µM (inactive)
COLO 205
  GI50: 79.6 µM (inactive)
MDA-MB-435
  GI50: > 100 µM (inactive)
SK-OV-3
  GI50: > 51.4 µM (inactive)
UACC-62
  GI50: 33.7 µM (inactive)
PC-3
  GI50: 37.6 µM (inactive)
MCF7
  GI50: > 72.3 µM (inactive)
SN12C
  GI50: 49.9 µM (inactive)
M14
  GI50: > 62.4 µM (inactive)
NCI-H522
  GI50: 19.7 µM (inactive)
